What all share (experiment): MIC in Nutrient Broth (Table III)
Type in all cases: cell-based

For assay [1], the system named is Str. pneumoniae. The conditions noted are these: Streptococcus pneumoniae, 10^-3 dilution of overnight broth culture, 45% AAB, 5% serum, 50% broth. The source says:
(§1) Organism in Nutrient Broth
(§2) *45% AAB 5% serum 50% broth listed above,
(§3) **Dilution of overnight broth culture

Assay [2] concerns Str. pyogenes. The conditions noted are these: Streptococcus pyogenes, 10^-3 dilution of overnight broth culture, 45% AAB, 5% serum, 50% broth.
Text: as §1, §2, §3

Assay [3] relates to S. aureus. The conditions noted are these: Staphylococcus aureus; S. aureus+50% serum (10^-4).
Text: as §1, §3

Assay [4] deals with Sal. enteritidis. The conditions noted are these: Salmonella enterica; Sal. enteritidis (10^-4).
Text: as §1, §3

For assay [5], the system named is Pr. mirabilis. The conditions noted are these: Proteus mirabilis; Pr. mirabilis (10^-4).
Text: as §1, §3

For assay [6], the system named is K. pneumoniae. The conditions noted are these: Klebsiella pneumoniae.
Text: as §1, §3

For assay [7], the system named is Ps. aeruginosa. The conditions noted are these: Pseudomonas aeruginosa.
Text: as §1, §3

Assay [8] relates to Pr. morganii. The conditions noted are these: Morganella morganii.
Text: as §1, §3

For assay [9], the system named is S. aureus Smith. The conditions noted are these: Staphylococcus aureus, S. aureus Smith (10^-4).
Text: as §1, §3

The test system of assay [10] is Ent. cloacae. The conditions noted are these: Enterobacter cloacae, Ent. cloacae (10^-4).
Text: as §1, §3

Assay [11] has as its system Ser. marcescens. The conditions noted are these: Serratia marcescens; Ser. marcescens (10^-4).
Text: as §1, §3

In assay [12] the test system is E. coli Juhl. The conditions noted are these: Escherichia coli; E. coli Juhl (10^-4).
Text: as §1, §3

Assay [13] concerns E. coli. The conditions noted are these: Escherichia coli; E. coli (10^-4).
Text: as §1, §3

Assay [14] has as its system S. aureus Meth.-Res. The conditions noted are these: Staphylococcus aureus.
Text: as §1, §3

For assay [15], the system named is S. aureus BX1633. The conditions noted are these: Staphylococcus aureus.
Text: as §1, §3

Molecules are shown by their SMILES. Like-named read-outs stand apart in the source and are kept apart here.

Take `CC1(C)S[C@@H]2[C@H](NC(=O)[C@H](N)c3ccccc3)C(=O)N2[C@H]1C(=O)O` [Sodium Ampicillin]: the MIC was found to be 0.016 µg/mL in assay [1]; 0.008 µg/mL in assay [2]; 0.13 µg/mL in [3]; 0.13 µg/mL in [4]; 0.25 µg/mL in assay [5]; 125 µg/mL in assay [6]. The minimal inhibitory concentration (MIC) was 0.5 µg/mL in [6] (K. pneumoniae (10^-4), first of two lines, read-out: MIC); > 125 µg/mL in assay [7]; > 125 µg/mL in [8]; 0.06 µg/mL in assay [9]; > 125 µg/mL in assay [10] (first of three lines); 32 µg/mL in assay [10] (second of three lines, read-out: MIC). Also, the minimal inhibitory concentration (MIC) in assay [10] (third of three lines, read-out: MIC) was 63 µg/mL; in assay [11] it was 32 µg/mL; in assay [12], 2 µg/mL; in assay [13], 16 µg/mL; in assay [14] it was > 125 µg/mL; in assay [14] (S. aureus Meth.-Res. (10^-3), 37° C., read-out: MIC), 32 µg/mL. For the same compound, the MIC in assay [15] (BX1633) was > 125 µg/mL; in assay [15] (BX1633, S. aureus BX1633 (10^-3), read-out: MIC) it was 32 µg/mL.

The MIC is the smallest concentration in the dilution series that meets the test's criterion for growth inhibition.

For the origin of these results see patent publication US4185015A, “Methoxymethyl 6-[D-2,2-dimethyl-4-(4-hydroxyphenyl)-5-oxo-1-imidazolyl]penicillanate” (priority 1977, dated 1980).
